One molecule from BindingDB's records for doi:10.1021/jm00061a004 (1993) can be followed below.

Data set [1] deals with T1, Cytochrome P450 2D6 (Homo sapiens, UniProt P10635). Put plainly: Inhibitory constant for cytochrome P450 2D6.
The target in data set [2] is CYP2D6 (Homo sapiens, UniProt P10635). Put plainly: Apparent inhibitory constant (Ki) for Bufuralol 1'-hydroxylation by human liver microsomes. The conditions noted are these: probe bufuralol (1'-hydroxylation).
For data set [3], the target named is T1, Cytochrome P450 2D6. Description: Inhibition of partially purified cytochrome P450 2D6 1'-hydroxybufuralol formation.

T1 sequence (P10635 whole entry): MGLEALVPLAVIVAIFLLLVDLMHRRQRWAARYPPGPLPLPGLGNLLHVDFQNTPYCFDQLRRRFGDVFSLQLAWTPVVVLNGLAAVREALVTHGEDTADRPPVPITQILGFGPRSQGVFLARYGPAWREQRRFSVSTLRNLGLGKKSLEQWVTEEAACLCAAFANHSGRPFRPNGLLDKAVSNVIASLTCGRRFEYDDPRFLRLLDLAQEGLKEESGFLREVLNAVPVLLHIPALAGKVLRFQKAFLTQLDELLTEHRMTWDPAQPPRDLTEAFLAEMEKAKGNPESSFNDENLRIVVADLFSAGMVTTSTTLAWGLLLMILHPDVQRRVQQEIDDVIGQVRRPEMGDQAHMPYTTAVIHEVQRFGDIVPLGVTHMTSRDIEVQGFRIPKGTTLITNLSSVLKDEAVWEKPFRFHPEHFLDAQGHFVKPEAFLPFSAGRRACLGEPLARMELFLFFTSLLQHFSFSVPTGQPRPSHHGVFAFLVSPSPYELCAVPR
Sequence of CYP2D6 (P10635 whole entry): as above

Consider `COC(=O)C1=CO[C@@H](C)[C@H]2CN3CCc4c([nH]c5ccccc45)[C@@H]3C[C@H]12`, for which the Ki in data set [1] was 3.3 nM; in data set [2] it was 4.6 nM; in data set [3], 5.7 nM.
